Results as given in patent US6894073B2, “Use of diterpene compound as a therapeutic agent of inflammation, immune disease or cancer” (Korea Research Institute of Bioscience and Biotechnology, priority 2000, dated 2005).

Tests used:
[1] = tested on: prostaglandin E2; assay: Inhibition of prostaglandin E2 production in LPS-stimulated Raw 264.7 cells (enzyme immunometric assay); assay type: cell-based, murine; conditions: for PGE2: 1 μg/ml LPS, 16 hours
Description: To investigate whether kaurane diterpene compounds obtained in Example 1 can inhibit the production of prostaglandin, which induces inflammatory reaction, the present inventors measured the amount of prostaglandin E2 accumulated in the culture medium of LPS-stimulated murine macrophage cells, which were treated with four kaurane diterpene compounds, kamebanin, kamebacetal A, kamebakaurin, or exisanin A.
In detail, Raw 264.7 cells in DMEM medium were seeded to a 96-well plate at a cell density of 1×10^5 cells/well and were incubated for 18 hours. Cyclooxygenase-1, the constitutive rate-determining enzyme of the prostaglandin synthesis was inactivated by incubating for 3 hrs with 500 μM of aspirin and each well was washed two times with PBS (phosphate-buffered saline). To each well were added 1 μg/ml of LPS and 3 μg/ml, 0.3 μg/ml, and 0.03 μg/ml concentrations of kaurane diterpene compounds of the present invention and was incubated for 16 hours. After collecting supernatant by centrifugation, the amount of prostaglandin in the culture medium was quantified by enzyme immunometric assay.

[2] = tested on: cIAP-1; assay: TNF-α-induced cIAP-1 protein expression, Western blot, MCF-7 and HT-1080 cells; assay type: cell-based; conditions: 1, 5, 10 μg/ml, 20 ng/ml TNF-α 3 hours
Description: (§1) MCF-7 cells and HT-1080 cells were pretreated for 30 minutes with 1 μg/ml, 5 μg/ml, and 10 μg/ml concentrations of four kinds of kaurane diterpene compounds, respectively. After that, 20 ng/ml concentrations of TNF-α were treated for three hours to induce the expression of cIAP-1 and cIAP-2 proteins. Protein extract was prepared from cultured cells using buffer solution for protein extraction consisting of 50 mM Tris-HCL (pH 7.5), 1% Nonidet P40, 150 mM NaCl, 1 mM EDTA, 1 mM phenylmethyl sulfonyl fluoride, […]. 50 μg of protein extract of the control and compound-treated groups was applied to the SDS-polyacrylamide gel electrophoresis. After transferring the proteins into the polyvinylidene difluoride membrane, the membrane was blocked with 5% skim milk for three hours, and were reacted with antibodies against cIAP-1, cIAP-2, Bcl-2, and Bax proteins (Santa Cruz Biochemicals). The membrane was washed with PBS and was reacted with secondary antibody conjugated with horseradish peroxidase. After washing again with PBS, the protein was detected by ECL system (Amersham Pharmacia Biotec).

[3] = tested on: Bf1-1/A1 mRNA; assay: TNF-α-induced Bf1-1/A1 mRNA expression, Northern blot, MCF-7 and HT-1080 cells; assay type: cell-based; conditions: 1, 5, 10 μg/ml, 20 ng/ml TNF-α 3 hours
Description: MCF-7 cells (ATCC HTB 22, breast cancer cell line) and HT-1080 cells (ATCC CCL 121, fibroblastoma) were pretreated for 30 minutes with 1 μg/ml, 5 μg/ml, and 10 μg/ml concentrations of four kinds of kaurane diterpene compounds. Thereafter, 20 ng/ml concentrations of TNF-α were treated for three hours to induce the expression of Bf1-1/A1 mRNA. After isolating total RNA from the control and compound-treated cells, the expression of Bf1-1/A1 mRNA was measured by Northern blot analysis. To accomplish this, 20 μg of the total RNA was electrophoresed in the 1% agarose gel containing 2.2M concentrations of formaldehyde. After that, RNA was transferred to nylon membrane and fixed using ultraviolet. The nylon membrane was hybridized with ^32P-labeled probe, which was represented by SEQ. ID NO. 2 and specific to the cDNA of Bf1-1/A1 gene. After washing unbound probe with phosphate buffered saline (PBS) containing sodium dodecyl sulfate (SDS), the membrane was exposed to x-ray film.

[4] = tested on: NF-κB; assay: NF-κB activation, SEAP reporter in LPS-stimulated RAW-NF-AP cells; assay type: cell-based, murine; conditions: Mus musculus
Description: RAW-NF-AP cells, which can be used effectively to detect the NF-κB dependent expression of reporter gene, (Korean Patent Application No. 1999-0006025), were seeded to a 96-well plate at a cell density of 1×10^5 cell/well and were incubated for 3 hours at 37° C. in a 5% CO2 incubator. Thereafter, 1 μg/ml concentration of LPS and 0.03 μg/ml, 0.3 μg/ml, and 3 μg/ml concentrations of kaurane diterpene compounds of the present invention were added to each well and was incubated for 16 hours. After collecting supernatant by centrifugation, the amount of secreted alkaline phosphatase (SEAP) in the culture medium of which expression is regulated by the activation of NF-κB was quantified.

[5] = tested on: Bax; assay: Bax expression, Western blot, MCF-7 and HT-1080 cells; assay type: cell-based; conditions: 1, 5, 10 μg/ml, 20 ng/ml TNF-α 3 hours
Description: as §1

[6] = tested on: cIAP-2; assay: TNF-α-induced cIAP-2 protein expression, Western blot, MCF-7 and HT-1080 cells; assay type: cell-based; conditions: 1, 5, 10 μg/ml, 20 ng/ml TNF-α 3 hours
Description: as §1

[7] = tested on: iNOS mRNA; assay: iNOS mRNA expression, RT-PCR, LPS-stimulated Raw 264.7 cells; assay type: cell-based, murine; conditions: 1 μg/ml, LPS 1 μg/ml, 6 hours
Description: Raw 264.7 murine macrophage cells were treated simultaneously with 1 μg/ml concentrations of LPS and 0.1 μg/ml, 0.3 μg/ml, 1 μg/ml, and 3 μg/ml concentrations of kamebakaurin and were incubated for 6 hours at 37° C. in a 5% CO2 incubator. After isolation of total RNA, reverse transcriptase-polymerase chain reaction (RT-PCR) was performed using said RNA as a template and primer pairs represented by SEQ. ID NO. 3 and 4 for iNOS gene and primer pairs represented by SEQ. ID NO. 5 and 6 for COX-2.

[8] = tested on: iNOS protein; assay: iNOS protein expression, Western blot, LPS-stimulated Raw 264.7 cells; assay type: cell-based, murine; conditions: LPS 1 μg/ml, 18 hours
Description: Raw 264.7 murine macrophage cells were treated simultaneously with 1 μg/ml concentrations of LPS and 0.1 μg/ml, 0.3 μg/ml, 1 μg/ml, and 3 μg/ml concentrations of kamebakaurin and were incubated for 18 hours at 37° C. in a 5% CO2 incubator. After preparing total cell lysates from cultured cells using buffer solution for protein extraction of the Example <7-2>, the expression pattern of proteins was assessed by Western blot analysis.

## C=C1C(=O)[C@@]23[C@H](O)C[C@@H]4C(C)(C)CC[C@H](O)[C@@]4(CO)[C@@H]2CC[C@@H]1[C@H]3O [Kamebakaurin, kamebakaurin]
[1]; 0.03 μg/ml compound
  PGE2: 10.7 ± 1.2 ng/mL
[1]; 0.3 μg/ml compound
  PGE2: 9.2 ± 0.2 ng/mL
[1]; 3 μg/ml compound
  Inhibition rate (%) of prostaglandin E2 production: 95.1%
  PGE2: 1.8 ± 0.4 ng/mL
[1]; Mus musculus, RAW264.7, 0.03 μg/ml compound, read-out: Inhibition rate (%) of prostaglandin E2 production
  inhibition at 0.03 µg/mL: -7.1%
[1]; Mus musculus, RAW264.7, 0.3 μg/ml compound, read-out: Inhibition rate (%) of prostaglandin E2 production
  inhibition at 0.3 µg/mL: 9.7%
[1]; Mus musculus, RAW264.7, 3 μg/ml compound, read-out: Inhibition rate (%) of prostaglandin E2 production
  inhibition at 3 µg/mL: ~95%
[1]; Mus musculus, RAW264.7, LPS-stimulated Raw 264.7 cells
  IC50: 2.63 µM
[2]
  Expression of cIAP-1 protein induced by TNF-α: inhibited
[3]
  Expression of Bf1-1/A1 mRNA induced by TNF-α: inhibited
[4]; 0.03 μg/ml compound, 1 μg/ml LPS, 16 hours
  inhibition at 0.03 µg/mL: 2.5%
[4]; 0.3 μg/ml compound, 1 μg/ml LPS, 16 hours
  inhibition at 0.3 µg/mL: 33.1%
[4]; 3 μg/ml compound, 1 μg/ml LPS, 16 hours
  inhibition at 3 µg/mL: 96.4%
[4]; RAW-NF-AP cells, LPS
  IC50: 1.11 µM
[5]
  Expression of Bax: not inhibited
[6]
  Expression of cIAP-2 protein induced by TNF-α: inhibited
[7]
  Expression of iNOS mRNA: completely suppressed
[8]; 3 μg/ml
  Expression of iNOS protein: completely suppressed
[8]; 0.1-3 μg/ml
  Expression of iNOS protein: suppressed dose-dependently
